# Experimental data as given in PubChem BioAssay (NCI).
#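 Cells were grown in 96-well plates and exposed to each compound for 48 hours at five concentrations; endpoints were interpolated linearly between bracketing concentrations, or set to the highest concentration if not reached. The concentration for full growth arrest is given as TGI.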
# What was measured:
# Assay in all cases: NCI tumour cell line growth inhibition, 48 h
# [1] = system: EKVX NSCLC
# [2] = system: KM12 colon
# [3] = system: RPMI-8226 leukemia
# [4] = system: TK-10 renal
# [5] = system: U251 CNS
# [6] = system: SN12C renal
smiles,measurement,setting,value
CCOC(=O)N(C)C(=C(F)F)C(F)(F)F,TGI,[1],89.2 µM
same,TGI,[2],> 100 µM
same,TGI,[3],49 µM
same,TGI,[4],97.8 µM
same,TGI,[5],> 100 µM
CCc1cc2c(c3c1CCCC3)CC1(Cc3ccc(C(=O)OC)cc3C1)C2 (stereo unspecified),TGI,[1],> 100 µM
same,TGI,[2],> 100 µM
same,TGI,[3],> 100 µM
same,TGI,[6],> 100 µM
same,TGI,[4],> 100 µM
same,TGI,[5],> 100 µM
COc1cc(C2c3cc4c(cc3OC(NCCc3ccccc3)C2C)OCO4)cc(OC)c1OC (stereo unspecified),TGI,[1],> 94 µM
same,TGI,[2],4.12 µM
same,TGI,[3],14.7 µM
same,TGI,[6],> 65.3 µM
same,TGI,[4],> 100 µM
same,TGI,[5],14.7 µM
COC(=O)c1nn2ccc3ccccc3c2c1C(=O)OC,TGI,[1],> 100 µM
same,TGI,[2],> 100 µM
same,TGI,[6],> 100 µM
same,TGI,[4],> 100 µM
same,TGI,[5],> 100 µM
COc1cc(/C=N/c2ccccn2)cc(OC)c1OC,TGI,[1],> 100 µM
same,TGI,[2],> 100 µM
same,TGI,[3],> 100 µM
same,TGI,[6],> 100 µM
same,TGI,[5],> 100 µM
CC(C)CCC[C@@H](C)C1CCC2[C@@H]3CCC4C[C@@H](NS(C)(=O)=O)CC[C@]4(C)C3CC[C@@]21C (stereo partly specified),TGI,[1],> 100 µM
same,TGI,[2],> 100 µM
same,TGI,[3],> 100 µM
same,TGI,[6],> 100 µM
same,TGI,[4],> 100 µM
same,TGI,[5],> 100 µM
Cc1cc(S(=O)(=O)NC2=NCCN2Cc2ccccc2)c(S)cc1Cl,TGI,[1],> 100 µM
same,TGI,[2],> 100 µM
same,TGI,[3],> 100 µM
same,TGI,[6],> 100 µM
same,TGI,[4],> 100 µM
same,TGI,[5],> 100 µM
Nc1ncnc2c1ncn2-c1ccc([N+](=O)[O-])cn1,TGI,[2],> 100 µM
same,TGI,[3],> 100 µM
same,TGI,[6],> 100 µM
same,TGI,[4],> 100 µM
same,TGI,[5],> 100 µM
CCCCCCSCC/C(C)=N\OC,TGI,[1],> 100 µM
same,TGI,[2],> 100 µM
same,TGI,[3],> 100 µM
same,TGI,[6],> 100 µM
same,TGI,[4],> 100 µM
same,TGI,[5],> 100 µM
CC(C)[Si]1(C(C)C)OCC2OC(n3c(C(=O)c4ccccc4)cc(=O)[nH]c3=O)CC2O[Si](C(C)C)(C(C)C)O1 (stereo unspecified),TGI,[1],14.6 µM
same,TGI,[2],8.51 µM
same,TGI,[3],> 23.3 µM
same,TGI,[6],5.5 µM
same,TGI,[4],9.23 µM
same,TGI,[5],9.85 µM
COc1cc(C(c2cccc3ccccc23)N2C(=O)CCC2C(=O)O)cc(OC)c1OC (stereo unspecified),TGI,[1],> 100 µM
same,TGI,[2],> 100 µM
same,TGI,[3],> 100 µM
same,TGI,[6],> 100 µM
same,TGI,[5],> 100 µM
O=[N+]([O-])c1ccc(C2=NOC(c3ccc(Cl)cc3)N2C23CC4CC(CC(C4)C2)C3)cc1 (stereo unspecified),TGI,[1],> 100 µM
same,TGI,[2],> 100 µM
same,TGI,[3],> 100 µM
same,TGI,[6],> 100 µM
same,TGI,[4],> 100 µM
same,TGI,[5],> 100 µM
O=C(c1ccccc1)c1ccc2c(c1)nc1n2C(c2c(F)cccc2F)SC1 (stereo unspecified),TGI,[1],84.5 µM
same,TGI,[2],66.7 µM
same,TGI,[3],> 100 µM
same,TGI,[6],> 100 µM
same,TGI,[4],> 100 µM
same,TGI,[5],> 100 µM
COC1CC(C)([N+](=O)[O-])C(O)C(C)O1 (stereo unspecified),TGI,[1],> 100 µM
same,TGI,[2],> 100 µM
same,TGI,[3],> 100 µM
same,TGI,[6],> 100 µM
same,TGI,[4],> 100 µM
same,TGI,[5],> 100 µM
CCOC(=O)c1sc2c(c1O)c(=O)n(-c1ccccc1)c(=S)n2-c1ccccc1,TGI,[2],> 100 µM
same,TGI,[3],> 100 µM
same,TGI,[6],> 100 µM
same,TGI,[4],> 100 µM
same,TGI,[5],> 100 µM
CCOC(=O)c1nc2ccc(C(F)(F)F)cc2nc1Nc1ccc(F)cc1,TGI,[2],> 100 µM
same,TGI,[6],> 100 µM
same,TGI,[4],> 100 µM
COC(=O)n1c(C)c(C=O)c2ccc(OC)cc21,TGI,[1],> 100 µM
same,TGI,[2],89.9 µM
same,TGI,[6],> 100 µM
same,TGI,[4],67.6 µM
C=C1C(=O)O[C@H]2C/C(C)=C/CC[C@]3(C)CCC[C@](C)(CC[C@@H]12)O3,TGI,[1],22.7 µM
same,TGI,[2],17.4 µM
same,TGI,[3],20 µM
same,TGI,[6],34.2 µM
same,TGI,[4],18.4 µM
same,TGI,[5],17.7 µM
CCN(CC)CCCNc1ccc([N+](=O)[O-])c2nc3ccc(OC)cc3c(N)c12,TGI,[1],> 10 µM
same,TGI,[2],3.16 µM
same,TGI,[3],4.81 µM
same,TGI,[6],3.64 µM
same,TGI,[4],> 10 µM
same,TGI,[5],> 10 µM
C[C@@H]1CCC2C(C)(C)C(/C=C\C=O)C3(C)OC213 (stereo partly specified),TGI,[1],> 100 µM
same,TGI,[2],> 100 µM
same,TGI,[3],84.5 µM
same,TGI,[4],> 100 µM
same,TGI,[5],> 100 µM
CCO/C(O)=C(/C(=N)N1CCCC1)C(=O)Nc1cccc(Cl)c1,TGI,[1],> 100 µM
same,TGI,[2],> 100 µM
same,TGI,[3],> 100 µM
same,TGI,[6],> 100 µM
same,TGI,[4],> 100 µM
same,TGI,[5],> 100 µM
COc1cc(C2c3[nH]c4ccccc4c3[C@@H](Nc3ccc(C#N)cc3)[C@H]3COC(=O)N23)cc(OC)c1O (stereo partly specified),TGI,[1],4.32 µM
same,TGI,[3],0.688 µM
same,TGI,[6],0.625 µM
same,TGI,[4],0.866 µM
same,TGI,[5],1.32 µM
[N-]=[N+]=Nc1ccc2c(c1)Sc1ccccc1N2CCCCN1CCN(Cc2ccc(C(=O)c3ccc(CSCC(N)C(=O)O)cc3)cc2)CC1 (stereo unspecified),TGI,[1],> 100 µM
same,TGI,[2],7.91 µM
same,TGI,[3],> 100 µM
same,TGI,[6],> 100 µM
same,TGI,[4],> 100 µM
same,TGI,[5],26.4 µM
N#Cc1ncn(CCO)c1N,TGI,[1],> 100 µM
same,TGI,[2],> 100 µM
same,TGI,[3],> 100 µM
same,TGI,[6],> 100 µM
same,TGI,[4],> 100 µM
same,TGI,[5],> 100 µM
CCOC(=O)CCC(NC(=O)C(N)c1ccc([N+](=O)[O-])cc1)C(=O)NC(CCC(=O)OCC)C(=O)OCC (stereo unspecified),TGI,[1],> 100 µM
same,TGI,[2],> 100 µM
same,TGI,[3],> 100 µM
same,TGI,[6],> 100 µM
same,TGI,[4],> 100 µM
same,TGI,[5],> 100 µM
NS(=O)(=O)c1nnc(NC(=O)c2cccc([N+](=O)[O-])c2)s1,TGI,[1],> 100 µM
same,TGI,[2],> 100 µM
same,TGI,[3],> 100 µM
same,TGI,[6],> 100 µM
same,TGI,[4],> 100 µM
same,TGI,[5],> 100 µM
O=C(O)C1CCCCN1C(=O)Cc1c[nH]c2ccccc12 (stereo unspecified),TGI,[1],> 100 µM
same,TGI,[2],> 100 µM
same,TGI,[3],> 100 µM
same,TGI,[6],> 100 µM
same,TGI,[4],> 100 µM
same,TGI,[5],> 100 µM
CN(C)/C=N\c1nncc2[nH]cnc12,TGI,[1],> 100 µM
same,TGI,[2],> 100 µM
same,TGI,[3],> 100 µM
same,TGI,[6],> 100 µM
same,TGI,[4],> 100 µM
same,TGI,[5],> 100 µM
N/C(=N\N=C\c1cc(I)cc(I)c1O)NO,TGI,[1],> 100 µM
same,TGI,[2],> 100 µM
same,TGI,[6],> 100 µM
same,TGI,[4],> 100 µM
same,TGI,[5],> 100 µM
NC(=O)NNCc1c(-c2ccccc2)no[n+]1[O-],TGI,[1],> 100 µM
same,TGI,[2],> 100 µM
same,TGI,[3],> 100 µM
same,TGI,[6],> 100 µM
same,TGI,[4],> 100 µM
same,TGI,[5],> 100 µM
